Results as given in patent publication US7226783B1, “Vanillin production” (David Michael & Co., Inc., priority 1997, dated 2007).
Blank lines part the entries; values can stand above or below the molecule they belong to.

Columns and labels:
[1] = tested on: p-hydroxybenzaldehyde synthase; test: Substrate specificity of p-hydroxybenzaldehyde synthase (chain shortening enzyme), crude enzyme; format: biochemical, Vanilla planifolia; settings: for Result: conversion of the compound as substrate to the expected chain-shortened product: crude enzyme, HPLC detection of product
Description: Sterile plant material (2 g) 2–3 weeks after subculture, was homogenized in a cooled Potter glass homogenizer with 4 ml of 0.1 M HEPES buffer, pH 8.0, containing 10 mM DTT. The homogenate was next centrifuged at 4° C. at 15.000× g for 15 min. Resultant supernatant (4 ml) was filtered through Sephadex G-25 column (void volume 3–4 ml.) Equilibrated with Tris/HCL buffer pH7, containing 10 mM DTT. The column was washed with the same buffer and 2 ml fraction following the void volume was collected. This fraction was used as the crude enzyme source.
The p-HO-aldehyde synthase activity was determined in the following mixture:
crude enzyme extract: 10 μl
(substrate=1.8 mM p-coumarate in 0.1 M Tris/HCl, pH 8.0 with 10 mM DTT)
The mixture was incubated for 10–60 min (for longer incubation times, the activity was not proportional with time) at 35° C. and next, the reaction stopped by addition of 200 μl of acidified methanol (10% acetic acid in methanol). The slurry was passed through 0.45 μm filter and the filtrate (50 μl) injected into HPLC Bio-sil 18 HL 90-5 column (Reversed phase, 250 mm×4.6 mm). […] The eluate was monitored at 280 nm and retention time of the reaction product was compared to retention time of the standard compounds (benzaldehyde, p-HO-benzaldehyde, vanillin, protocatechuic aldehyde, p-coumaric acid, caffeic acid, ferulic acid, coniferyl aldehyde). The results were quantified using LKB Bromma 2221 Integrator.
As a potential substrates for chain shortening enzyme the following compounds were tested: […]

[2] = tested on: Vanilla embryo culture; test: Feeding vanilla embryo culture with vanillin precursors, HPLC analysis of metabolites; format: cell-based, Vanilla planifolia
Text: We derived a scheme for the vanillin biosynthetic pathway by analysis of metabolites in cultured embryos and by experiments with feeding of precursors and intermediates. This scheme is shown in FIG. 1 and the experiments are described below.
Embryo cultures of Vanilla planifolia were established as described in Example 1. The procedures used to extract phenolics from the cultured embryo cells and to analyze the extracts by high pressure liquid chromatography (HPLC) were as described generally by Havkin-Frenkel et al., Plant Cell, Tissue and Organ Culture 45: 133–136 (1996).
In the extraction procedure, 3 ml of 0.05 M sodium acetate buffer, pH 5.5, was added to about 1 gram of fresh culture. Samples were placed in boiling water for three minutes, then chilled. The cells were next homogenized in a Polytron blender for 1 minute at medium speed. A β-glucosidase solution was added to the homogenized cells to give a final concentration of 0.2%. Each sample was then incubated at 37° C. for 5 hr. Next, 17 ml of 95% ethanol was added, after which incubation at 37° C. was continued for an additional 24 hrs. The extract was then filtered and the ethanol evaporated. The filtrate was extracted twice using ethyl acetate, then extracted twice with ethyl acetate acidified to pH 3 with HCl. The extracts were combined and the ethyl acetate evaporated. The residue was dissolved in 1 ml of acidified methanol and filtered with a 0.45 μm syringe filter for HPLC analysis.
Extractions of metabolites from culture medium was similar to the cell extraction protocol. Five ml of spent medium was incubated in a β-glucosidase solution at 37° C. for 24 hrs. The medium was then extracted with ethyl acetate and the organic portions combined and evaporated, as for the cell extracts.
Metabolite levels were measured with a Hewlett Packard 1090L or a Waters HPLC with a UV detector at 280 nm. The Waters HPLC was also equipped with a diode array detector to confirm the identities of the various intermediates, and the identities of the various intermediates were further confirmed by mass spectrometry. The column was a Supelco C-18 DB column of dimensions 250 mm×4.6 mm and a particle size of 5 μm. The mobile phase contained methanol and water, each of which was acidified with 1.25% acetic acid. The flow rate was 1 ml/min, with a solvent gradient as follows: […]
Results of selected experiments in which precursors or elicitors were added to vanilla cultures are set forth below. These experiments were performed in accordance with the procedures set forth in Examples 1–4.

[3] = tested on: alcohol dehydrogenase from Vanilla planifolia embryo culture (vanillyl alcohol dehydrogenase, VAD); test: Substrate specificity of vanillyl alcohol dehydrogenase (VAD); format: biochemical; settings: for Activity with the compound as substrate, NADH: cofactor NADH; for Activity with the compound as substrate, NADPH: cofactor NADPH
Description: We have purified and characterized the activity of VAD that catalyze the reduction of vanillin to vanillyl alcohol. The enzyme was identified as an NADH or NADPH-dependent alcohol dehydrogenase. The purification protocol was as set forth below.
Crude enzyme extract: Tissue was homogenized in 0.05 M actetate-Na buffer pH 4.0 (in proportion, 1 g of the tissue and 5 ml of the buffer) in an ice bath, using Polytrone homogenizer, at 20,000 revolutions of the blade per min. The homogenate was centrifuged at 13000 g for 15 min at 4° C. and the supernatant served as the crude enzyme source.
Ammonium sulfate fractionation and molecular sieving: Crude enzyme extract (100 ml) was supplied with ammonium sulfate in an ice bath up to 60% of saturation (44.4 g of Ammonium sulphate per 100 ml). The precipitate was centrifuged and discarded. The supernatant was supplied with ammonium sulfate up to 90% of saturation (total 64.6 g per 100 ml of crude extract). The precipitate was collected (10 min centrifugation at 10,000 g), dissolved in 7 ml of extraction buffer and subjected to molecular sieving at Sephacryl S-300 High Load Column (LKB Pharmacia) 2.6×60 cm, in 0.1 M pH 4.0 acetate-Na buffer. The flow rate was adjusted to 1 ml/min and 5 ml fractions were collected. The protein elution profile was monitored at 280 nm. Five fractions (of a total of 50) containing dehydrogenase activity (130–155 ml of the column eluate) were collected.
The column was developed with 0.5 M Tris/HCL buffer pH 7.4 in 0.0–1.0 M NaCl gradient (total gradient volume—70 ml) and 2.5 ml fractions were collected. Vanillyl alcohol dehydrogenase was released from the column between 0.3–0.4 M NaCl. Fractions containing VAD activity were dialysed overnight against 0.05 M caetate-Na buffer pH 4.0 and concentrated up to 50 times using Minicon concentrating filters (Amicon). […]

specificity of the tested enzyme towards substrate [1]: very high specificity
Result: conversion of the compound as substrate to the expected chain-shortened product [1]: positive
SMILES: O=C(O)/C=C/c1ccc(O)cc1 [CA, p-coumaric acid]
CA (p-coumaric acid) content of culture ([2]; precursor fed at 1 mM): 220 mg/100 g dry wt.
HBA (p-hydroxybenzyl alcohol) content of culture ([2]; precursor fed at 1 mM): 13000 mg/100 g dry wt.
PRO-ALD (3,4-dihydroxybenzaldehyde) content of culture ([2]; precursor fed at 1 mM): 10 mg/100 g dry wt.
VN (vanillin) content of culture ([2]; precursor fed at 1 mM): 0.01 mg/100 g dry wt.
VN ALC (vanillyl alcohol) content of culture ([2]; precursor fed at 1 mM): 10 mg/100 g dry wt.

SMILES: COc1ccc(C=O)cc1O [4methoxy-3-hydroxybenzaldehyde]
Activity with the compound as substrate, NADH [3]: 0.00 nmoles · gfwt^−1 · min^−1
Activity with the compound as substrate, NADPH [3]: 0.00 nmoles · gfwt^−1 · min^−1

SMILES: COc1cc(/C=C/C=O)ccc1O [coniferyl aldehyde, 4-HO-3-metoxycinnamyl aldehyde]
Activity with the compound as substrate, NADH [3]: 0.00 nmoles · gfwt^−1 · min^−1
Result: conversion of the compound as substrate to the expected chain-shortened product [1]: negative

SMILES: COc1cc(CO)ccc1O [VN. ALC., vanillyl alcohol]
CA (p-coumaric acid) content of culture ([2]; precursor fed at 2 mM): 206 mg/100 g dry wt.
HBA (p-hydroxybenzyl alcohol) content of culture ([2]; precursor fed at 2 mM): 10350 mg/100 g dry wt.
PRO-ALD (3,4-dihydroxybenzaldehyde) content of culture ([2]; precursor fed at 2 mM): 1.1 mg/100 g dry wt.
VN (vanillin) content of culture ([2]; precursor fed at 2 mM): 8.5 mg/100 g dry wt.
VN ALC (vanillyl alcohol) content of culture ([2]; precursor fed at 2 mM): 882 mg/100 g dry wt.

SMILES: O=Cc1ccccc1 [Benzaldehyde]
Activity with the compound as substrate, NADH [3]: 0.33 nmoles · gfwt^−1 · min^−1
Activity with the compound as substrate, NADPH [3]: 0.18 nmoles · gfwt^−1 · min^−1

SMILES: CC=O [Acetaldehyde]
substrate preference of VAD [3]: lower
Activity with the compound as substrate, NADH [3]: 0.26 nmoles · gfwt^−1 · min^−1

Activity with the compound as substrate, NADH [3]: 0.32 nmoles · gfwt^−1 · min^−1
Activity with the compound as substrate, NADPH [3]: 0.14 nmoles · gfwt^−1 · min^−1
SMILES: O=Cc1ccc(O)cc1 [BA, p-hydroxybenzaldehyde]
CA (p-coumaric acid) content of culture ([2]; precursor fed at 1 mM): 125 mg/100 g dry wt.
HBA (p-hydroxybenzyl alcohol) content of culture ([2]; precursor fed at 1 mM): 10305 mg/100 g dry wt.
PRO-ALD (3,4-dihydroxybenzaldehyde) content of culture ([2]; precursor fed at 1 mM): 5.8 mg/100 g dry wt.
VN (vanillin) content of culture ([2]; precursor fed at 1 mM): 0.015 mg/100 g dry wt.
VN ALC (vanillyl alcohol) content of culture ([2]; precursor fed at 1 mM): 12.3 mg/100 g dry wt.

Result: conversion of the compound as substrate to the expected chain-shortened product [1]: negative
SMILES: O=C(O)/C=C/c1ccccc1 [t-cinnamic acid]
